# Data published in US10245264B2, “Substituted imidazo[1,2-a]pyrazines as soluble guanylate cyclase activators” (Merck Sharp & Dohme Corp., priority 2015, dated 2019).
# Experiments:
# [1] = test system: systolic blood pressure in spontaneously hypertensive rats; assay: Acute efficacy in spontaneously hypertensive rats (SHR), telemetry blood pressure; assay type: in vivo, rat; settings: single oral dose 0.3 mpk P.O.
# Text: Acute Efficacy in Spontaneously Hypertensive Rats (SHR)
# Spontaneously hypertensive rats (SHR, male, Charles River) were implanted with DSI TA11 PA-C40 telemetry device (Data Sciences, Inc., St. Paul, Minn.) under isoflurane or ketamine/metomidine anesthesia. The telemetry unit catheter was inserted into the descending aorta via the femoral artery and the telemetry device was implanted subcutaneously in the left flank area. Animals were allowed to recover from surgery for 14 days before the start of any studies. Blood pressure, heart rate, and activity signals from conscious, freely moving rats were recorded continuously for 30 seconds every 10 minutes. On the day prior to administration of compound, a single oral dose of vehicle (10% transcutol/20% Cremophor/70% water) was administered to all animals to establish baseline control data. The blood pressure lowering efficacy of compound (PO) or vehicle was evaluated following a single oral gavage. Data were collected as hourly averages, and changes in blood pressure were calculated by subtracting control baseline data on an hourly basis. Animals were maintained on normal diet with a 12 hour light-dark cycle.
# Maximum peak decreases of systolic blood pressure (SBP) in SHR at a particular P.O. dose (mpk milligrams per kilogram) for the following representative compounds are provided below in Table 6.
# Category A=SBP in SHRs <20 mmHg; Category B=SBP in SHRs 20-40 mmHg;
# Category C=SBP in SHRs >40 mmHg
# [2] = target: T1, sGC α1/β1 heterodimer stably expressed in CHO-K1 cells (CHO-K1/sGC) (Homo sapiens, UniProt Q02108+Q02153); assay: Cell-based sGC functional assay (CASA assay), cGMP generation by HTRF; settings: for Emax: CHO-K1, maximum cGMP production of Compound A set to 100% activation, read-out: % Act. (percent activation relative to Compound A); for EC50: CHO-K1/sGC cells, 1 hr at 37° C., 4P fit, presence or absence of DETA-NO not given, read-out: IP (nM) (inflection point)
# T1 construct: expressed in transfected cells
# T1 sequence (Q02108 1-690): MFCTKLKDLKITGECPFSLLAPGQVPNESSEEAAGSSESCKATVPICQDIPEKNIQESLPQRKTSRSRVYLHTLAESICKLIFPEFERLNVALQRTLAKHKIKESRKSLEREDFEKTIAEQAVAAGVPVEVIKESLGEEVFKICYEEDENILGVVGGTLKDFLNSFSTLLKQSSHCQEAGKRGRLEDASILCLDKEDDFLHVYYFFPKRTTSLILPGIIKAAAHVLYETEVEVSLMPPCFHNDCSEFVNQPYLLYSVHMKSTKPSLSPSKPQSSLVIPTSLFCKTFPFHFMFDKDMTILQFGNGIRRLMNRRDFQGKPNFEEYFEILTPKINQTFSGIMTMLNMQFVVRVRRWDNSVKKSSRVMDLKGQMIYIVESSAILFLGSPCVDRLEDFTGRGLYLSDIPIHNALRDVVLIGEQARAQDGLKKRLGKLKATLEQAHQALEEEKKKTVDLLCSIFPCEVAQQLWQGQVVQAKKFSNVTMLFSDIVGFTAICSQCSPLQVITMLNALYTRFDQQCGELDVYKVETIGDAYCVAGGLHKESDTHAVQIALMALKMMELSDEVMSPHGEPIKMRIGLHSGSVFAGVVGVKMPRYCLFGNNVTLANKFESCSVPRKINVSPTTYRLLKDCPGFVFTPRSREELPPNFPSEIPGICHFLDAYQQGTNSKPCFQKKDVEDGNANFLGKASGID
# T1 sequence (Q02153 1-619): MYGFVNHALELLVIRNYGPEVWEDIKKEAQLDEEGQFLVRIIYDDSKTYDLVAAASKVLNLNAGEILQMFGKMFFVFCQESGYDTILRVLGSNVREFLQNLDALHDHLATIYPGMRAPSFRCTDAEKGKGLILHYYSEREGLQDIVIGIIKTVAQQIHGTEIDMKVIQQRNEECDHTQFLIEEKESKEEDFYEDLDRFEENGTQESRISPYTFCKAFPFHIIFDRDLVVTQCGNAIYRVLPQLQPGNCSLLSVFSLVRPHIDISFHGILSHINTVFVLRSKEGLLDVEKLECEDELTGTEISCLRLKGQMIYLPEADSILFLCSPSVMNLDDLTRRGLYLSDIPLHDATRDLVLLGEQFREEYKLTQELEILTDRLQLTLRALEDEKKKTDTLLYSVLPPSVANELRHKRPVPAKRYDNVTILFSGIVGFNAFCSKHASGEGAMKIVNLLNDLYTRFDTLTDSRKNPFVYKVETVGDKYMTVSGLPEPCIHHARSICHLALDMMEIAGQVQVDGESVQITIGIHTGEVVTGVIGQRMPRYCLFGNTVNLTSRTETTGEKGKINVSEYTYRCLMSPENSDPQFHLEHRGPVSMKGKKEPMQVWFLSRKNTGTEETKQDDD
# Summary of the method: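 CHO-K1/sGC cells (4×10^5/mL) in EBSS with 5 mM MgCl2, 10 mM HEPES, 0.05% BSA and 0.5 mM IBMX, treated 1 hr at 37° C with compounds (2.5% DMSO) with or without 1 μM DETA-NO. cGMP measured by HTRF, expressed as % of a reference heme-dependent activator's maximum; inflection point and fold induction from 4P fit.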
SMILES,"Maximum peak decrease of systolic blood pressure (SBP), Category [1]",Emax [2] [%],EC50 [2] [nM],% Act. (percent activation relative to Compound A) ([2]; maximum cGMP production of Compound A set to 100% activation) [%]
"CC1(c2ccc(F)cc2)C(=O)Nc2nc(-c3cn4ccnc4c(Oc4cccc(F)c4)n3)nc(N)c21 (centres unmarked) [Example 1A, 4-Amino-2-[8-(3-fluorophenoxy)imidazo[1,2-a]pyrazin-6-yl]-5-(4-fluorophenyl)-5-methyl-5,7-dihydro-6H-pyrrolo[2,3-d]pyrimidin-6-one]",B (Category B=SBP in SHRs 20-40 mmHg),110,17,
"CC1(c2ccc(F)cc2)C(=O)Nc2nc(-c3cn4ccnc4c(OCC4CCCC4)n3)nc(N)c21 (centres unmarked) [Example 45A, 4-amino-2-[8-(cyclopentyl-methoxy)imidazo [1,2-a]pyrazin-6-yl]-5-(4-fluoro-phenyl)-5-methyl-5,7-dihydro-6H-pyrrolo[2,3-d] pyrimidin-6-one]",,110,13,
"CC1(c2ccc(F)cc2)C(=O)Nc2nc(-c3cn4ccnc4c(OC4CCCC4)n3)nc(N)c21 (centres unmarked) [Example 46A, 4-amino-2-[8-(cyclopentyl-oxy)imidazo [1,2-a]pyrazin-6-yl]-5-(4-fluorophenyl)-5-methyl-5,7-dihydro-6H-pyrrolo[2,3-d] pyrimidin-6-one]",,108,912,
"CC1(c2ccc(Cl)cc2)C(=O)Nc2nc(-c3cn4ccnc4c(OCc4ccccc4)n3)nc(N)c21 (centres unmarked) [Example 48A, 4-amino-2-[8-(benzyloxy)imidazo[1,2-a]pyrazin-6-yl]-5-(4-chlorophenyl)-5-methyl-5,7-dihydro-6H-pyrrolo[2,3-d] pyrimidin-6-one]",,106,26,
"COCCNc1nc(-c2nc(N)c3c(n2)NC(=O)C3(C)c2ccc(F)cc2)cn2ccnc12 (centres unmarked) [Example 52A, 4-amino-5-(4-fluorophenyl)-2-{8-[(2-methoxyethyl)amino]imidazo [1,2-a]pyrazin-6-yl}-5-methyl-5,7-dihydro-6H-pyrrolo[2,3-d] pyrimidin-6-one]",,101,244,
"CC1(c2ccc(F)cc2)C(=O)Nc2nc(-c3cn4ccnc4c(NCC4CC(F)(F)C4)n3)nc(N)c21 (centres unmarked) [Example 53A, 4-amino-2-(8-{[(3,3-difluoro-cyclobutyl)methyl]amino}imidazo[1,2-a]pyrazin-6-yl)-5-(4-fluoro-phenyl)-5-methyl-5,7-dihydro-6H-pyrrolo[2,3-d] pyrimidin-6-one]",,110,948,
"CCC1(CNc2nc(-c3nc(N)c4c(n3)NC(=O)C4(C)c3ccc(F)cc3)cn3ccnc23)CC1 (centres unmarked) [Example 54A, 4-amino-2-(8-{[(1-ethyl-cyclopropyl)methyl]amino}imidazo[1,2-a]pyrazin-6-yl)-5-(4-fluoro-phenyl)-5-methyl-5,7-dihydro-6H-pyrrolo[2,3-d] pyrimidin-6-one]",,98,266,
"CC1(c2ccc(F)cc2)C(=O)Nc2nc(-c3cn4ccnc4c(NCC4CCCCC4)n3)nc(N)c21 (centres unmarked) [Example 55A, 4-amino-2-{8-[(cyclohexyl-methyl)amino]imidazo[1,2-a]pyrazin-6-yl}-5-(4-fluoro-phenyl)-5-methyl-5,7-dihydro-6H-pyrrolo[2,3-d] pyrimidin-6-one]",,92,35,
"CC1(c2ccc(Cl)cc2)C(=O)Nc2nc(-c3cn4ccnc4c(NCC4CC4(C)C)n3)nc(N)c21 (centres unmarked) [Example 56A, 4-amino-5-(4-chlorophenyl)-2-(8-{[(2,2-dimethylcyclo-propyl)methyl]amino}imidazo [1,2-a]pyrazin-6-yl)-5-methyl-5,7-dihydro-6H-pyrrolo [2,3-d]pyrimidin-6-one]",,110,51,
"CCC1(CNc2nc(-c3nc(N)c4c(n3)NC(=O)C4(C)c3ccc(Cl)cc3)cn3ccnc23)CC1 (centres unmarked) [Example 57A, 4-amino-5-(4-chlorophenyl)-2-(8-{[(1-ethylcyclo-propyl)methyl]amino}imidazo [1,2-a]pyrazin-6-yl)-5-methyl-5,7-dihydro-6H-pyrrolo[2,3-d] pyrimidin-6-one]",,123,47,
"CC1(c2ccc(Cl)cc2)C(=O)Nc2nc(-c3cn4ccnc4c(NCC4CC(F)(F)C4)n3)nc(N)c21 (centres unmarked) [Example 58A, 4-amino-5-(4-chlorophenyl)-2-(8-{[(3,3-difluorocyclo-butyl)methyl]amino}imidazo [1,2-a]pyrazin-6-yl)-5-methyl-5,7-dihydro-6H-pyrrolo[2,3-d] pyrimidin-6-one]",,109,163,
"CC1(c2ccc(Cl)cc2)C(=O)Nc2nc(-c3cn4ccnc4c(NCC4CCOCC4)n3)nc(N)c21 (centres unmarked) [Example 59A, 4-amino-5-(4-chlorophenyl)-5-methyl-2-{8-[(tetrahydro-2H-pyran-4-ylmethyl)amino]imidazo [1,2-a]pyrazin-6-yl}-5,7-dihydro-6H-pyrrolo[2,3-d] pyrimidin-6-one]",,167,701,
"CC1(c2ccc(Cl)cc2)C(=O)Nc2nc(-c3cn4ccnc4c(NCc4ccccc4)n3)nc(N)c21 (centres unmarked) [Example 60A, 4-amino-2-[8-(benzylamino)imidazo[1,2-a]pyrazin-6-yl]-5-(4-chloro-phenyl)-5-methyl-5,7-dihydro-6H-pyrrolo[2,3-d] pyrimidin-6-one]",,72,7,
"CC(C)CSc1nc(-c2nc(N)c3c(n2)NC(=O)C3(C)c2ccc(F)cc2)cn2ccnc12 (centres unmarked) [Example 63A, 4-amino-5-(4-fluorophenyl)-5-methyl-2-{8-[(2-methylpropyl)sulfanyl]imidazo [1,2-a]pyrazin-6-yl}-5,7-dihydro-6H-pyrrolo[2,3-d] pyrimidin-6-one]",,93,10,
"CC1(c2ccc(F)cc2)C(=O)Nc2nc(-c3cn4ccnc4c(SCCC(F)(F)F)n3)nc(N)c21 (centres unmarked) [Example 64A, 4-amino-5-(4-fluorophenyl)-5-methyl-2-{8-[(3,3,3-trifluoro-propyl)sulfanyl]imidazo[1,2-a]pyrazin-6-yl}-5,7-dihydro-6H-pyrrolo[2,3-d] pyrimidin-6-one]",,67,73,
"CC(Nc1nc(-c2nc(N)c3c(n2)NC(=O)C3(C)c2ccc(Cl)cc2)cn2ccnc12)c1ccccc1 (centres unmarked) [Example 73, 4-amino-5-(4-chlorophenyl)-5-methyl-2-{8-[(1-phenylethyl)amino]imidazo [1,2-a]pyrazin-6-yl}-5,7-dihydro-6H-pyrrolo[2,3-d] pyrimidin-6-one]",,81,336,
"CC(Nc1nc(-c2nc(N)c3c(n2)NC(=O)C3(C)c2ccc(Cl)cc2)cn2ccnc12)c1ccccc1 (centres unmarked) [Example 74, 4-amino-5-(4-chlorophenyl)-5-methyl-2-{8-[(1-phenylethyl)amino]imidazo [1,2-a]pyrazin-6-yl}-5,7-dihydro-6H-pyrrolo[2,3-d] pyrimidin-6-one]",,,231,87
